Structures can show the parent of a compound that is named as a salt.
What was measured:
CYP81A6 = conditions: reported so far; cited from earlier work
[1] = main metabolite of fenquinotrione in a wheat body; cited from earlier work
[2] = system: Arabidopsis thaliana having AK454412 introduced thereinto and wild type; assay: Test of sensitivity to various drugs, AK454412-introduced versus wild type Arabidopsis thaliana; format: in vivo; conditions: evaluated subjectively based on drug concentration exhibiting the effect; 0, 0.1, 1, 10, 100, 1,000 nM
Method: Therefore, similar tests were performed on compounds having various acting properties described in HRAC including these sulfonylurea-based ALS inhibitors to search for a compound that can be metabolically degraded by AK454412. Specifically, 61 compounds arbitrarily selected from all of the 25 classifications of HRAC 2020 were subjected to sensitivity examination in Arabidopsis thaliana having AK454412 introduced thereinto and wild type. The sensitivity to each of the drugs was evaluated subjectively with respect to every acting symptom.
As a result, compounds found to have a difference in the sensitivity between the wild type and the recombinant Arabidopsis thaliana are illustrated in FIGS. 10-1 to 10-4. It is noted that concentrations of the drug in respective wells of a plate shown in each photograph in FIGS. 10-1 to 10-4 are 0, 0.1, and 1 nM in the stated order in the rightward direction in an upper portion, and 10, 100, and 1,000 nM in the stated order in the rightward direction in a lower portion. Besides, the compound found to have a sensitivity difference are listed below.

| Compound | metabolic reactivity of CYP81A6 against the compound (CYP81A6) | herbicidal activity [1] | approximate sensitivity difference between wild type and recombinant Arabidopsis thaliana [2] |
| --- | --- | --- | --- |
| CO/N=C(/C)c1cccc(Oc2nc(OC)cc(OC)n2)c1C(=O)OC [pyriminobac-methyl] | exhibits metabolic reactivity |  |  |
| O=C1CCCC(=O)C1C(=O)c1nc2c(Cl)cccc2n(-c2ccc(O)cc2)c1=O [demethylated product of fenquinotrione] |  | does not exhibit herbicidal activity |  |
| COC(=O)NS(=O)(=O)c1ccc(N)cc1 [asulam] |  |  | < 10 |
| CC(C)C1(C)N=C(c2nc3ccccc3cc2C(=O)O)NC1=O (centres unmarked) [imazaquin] |  |  | ≤ 10 |
| CS(=O)(=O)NC(=O)c1cc(Oc2ccc(C(F)(F)F)cc2Cl)ccc1[N+](=O)[O-] [fomesafen] |  |  | 3 |
| COCc1cccc(C(O)c2nc(OC)cc(OC)n2)c1NS(=O)(=O)C(F)F (centres unmarked) [pyrimisulfan] | exhibits metabolic reactivity |  | 100 |
| O=C(Nc1ccc(F)cc1)c1cccc(Oc2cccc(C(F)(F)F)c2)n1 [picolinafen] |  |  | 2 |
| O=C(Nc1ccc(F)cc1F)c1cccnc1Oc1cccc(C(F)(F)F)c1 [diflufenican] |  |  | 2 |
| COC(=O)c1ccccc1CS(=O)(=O)NC(=O)Nc1nc(OC)cc(OC)n1 [bensulfuron-methyl] | exhibits metabolic reactivity |  | 10 |
| CNc1cnn(-c2cccc(C(F)(F)F)c2)c(=O)c1Cl [norflurazon] |  |  | 2 |
| COc1cc(OC)nc(Oc2cccc(Oc3nc(OC)cc(OC)n3)c2C(=O)[O-])n1.[Na+] [Bispyribac-sodium salt, bispyribac-sodium salt] |  |  | < 5 |
| CCC(CC)Nc1c([N+](=O)[O-])cc(C)c(C)c1[N+](=O)[O-] [pendimethalin] |  |  | < 100 |
| CC(C)N1C(=O)c2ccccc2NS1(=O)=O [bentazone] | exhibits metabolic reactivity |  | < 5 |
| CCOC(=O)COc1cc(-c2nn(C)c(OC(F)F)c2Cl)c(F)cc1Cl [pyraflufen-ethyl] |  |  | 10 |
| COc1cc(OC)nc(Sc2cccc(Cl)c2C(=O)O)n1 [pyrithiobac-sodium salt] |  |  | 100 |
| oxadiargyl |  |  | 2 |
| COc1cnc(OC)n2nc(NS(=O)(=O)c3c(OCC(F)F)cccc3C(F)(F)F)nc12 [penoxsulam] |  |  | 100 |
| Cc1nn(-c2cc(NS(C)(=O)=O)c(Cl)cc2Cl)c(=O)n1C(F)F [sulfentrazone] |  |  | 10 |
| COC(=O)c1ccccc1S(=O)(=O)NC(=O)Nc1nc(C)cc(C)n1 [sulfometuron-methyl] |  |  | 5 |
| fluridone |  |  | 2 |
